The text below walks through data of patent US20230416329A1, “A PEPTIDE WITH DISULFIDE BONDS AND INHIBITORY ACTIVITY AGAINST SERINE PROTEASES, DERIVED HYBRID PEPTIDES THEREOF, AND USES THEREOF” (INSTITUTE OF MATERIA MEDICA , CHINESE ACADEMY OF MEDICAL …, priority 2020, published 2023).

Bridge positions count the residues as written; N and C are the ends. Square brackets hold non-standard residues; d marks the D form. Peptide text beside a SMILES is read from it. Hyp = O=C(O)[C@@H]1C[C@@H](O)CN1

This test concerns the target α-chymotrypsin (Bos taurus, UniProt P00766). Kind of test: Chymotrypsin inhibitory activity of peptides (AAPFpNA hydrolysis; IC50, Ki, residual activity). The test is classed as biochemical. The note with it: for Ki: Ki=IC50/(1+S/Km), Km 0.38 mM; for IC50: chymotrypsin 30 nM, AAPFpNA 0.5 mM. In outline: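 Peptide preincubated 10 min at 37 °C with 30 nM α-chymotrypsin in 50 mM Tris-HCl pH 7.8, 20 mM CaCl2; 0.5 mM AAPFpNA then added and A405 read after 90 min. Residual activity versus controls gave IC50; Ki = IC50/(1+S/Km), with Km measured separately.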

By Ki is commonly meant the dissociation constant of the complex between target and ligand, obtained from inhibition or displacement. In general, IC50 refers to the concentration that gives 50% inhibition. Regarding `CC[C@H](C)[C@H](N)C(=O)N[C@H]1CSSC[C@@H](C(=O)N[C@H](C(=O)O)[C@@H](C)CC)NC(=O)[C@H](CCC(N)=O)NC(=O)[C@H](C)NC(=O)[C@@H]2CCCN2C(=O)[C@H]([C@@H](C)CC)NC(=O)[C@H](CO)NC(=O)[C@H](Cc2ccc(O)cc2)NC(=O)[C@H]([C@@H](C)O)NC1=O` [CH47] (H-ICTYSIPAQCI-OH; disulfide 2-10; N-terminus and C-terminus assumed), the “inhibitory activity against chymotrypsin (in words)” value is “good chymotrypsin inhibitory activity”, the affinity corresponds to a Ki of 3680 nM and the IC50 is 8520 nM. `CSCC[C@@H]1NC(=O)[C@H](C)NC(=O)[C@@H]2CCCN2C(=O)[C@H](CC(N)=O)NC(=O)[C@H](CO)NC(=O)[C@H](Cc2ccccc2)NC(=O)[C@H]([C@@H](C)O)NC(=O)[C@@H](NC(=O)[C@@H](N)C(C)C)CSSC[C@@H](C(=O)N[C@@H](Cc2c[nH]cn2)C(=O)O)NC1=O` [CH48] (H-VCTFSNPAMCH-OH; disulfide 2-10) registered a half-maximal inhibitory concentration (IC50) greater than 50000 nM. For the compound `CC[C@H](C)[C@@H]1NC(=O)[C@H](Cc2ccc(O)cc2)NC(=O)[C@H](C)NC(=O)[C@H](CCSC)NC(=O)[C@H](C)NC(=O)[C@H](CCC(=O)O)NC(=O)CNC(=O)[C@@H]2CCCN2C(=O)[C@@H](N)CSSC[C@@H](C(=O)N[C@@H](Cc2ccccc2)C(=O)O)NC(=O)[C@H](CO)NC(=O)[C@H](CCCNC(=N)N)NC1=O` [CH28] (H-CPGEAMAYIRSCF-OH; disulfide 1-12; N-terminus and C-terminus assumed), the IC50 is greater than 50000 nM. In turn, `CC[C@H](C)[C@@H]1NC(=O)[C@H](CO)NC(=O)[C@H](Cc2ccccc2)NC(=O)[C@H]([C@@H](C)O)NC(=O)[C@H](C)NC(=O)[C@H](Cc2ccccc2)NC(=O)CNC(=O)[C@@H](N)CSSC[C@@H](C(=O)N[C@@H](Cc2ccc(O)cc2)C(=O)NCC(=O)O)NC(=O)[C@H](CCC(N)=O)NC(=O)[C@@H]2CCCN2C(=O)[C@@H]2CCCN2C1=O` [CH12] (H-CGFATFSIPPQCYG-OH; disulfide 1-12) gave an IC50 greater than 50000 nM.

The compound `CC[C@H](C)[C@@H]1NC(=O)[C@H](CO)NC(=O)[C@H](Cc2ccc(O)cc2)NC(=O)[C@H]([C@@H](C)O)NC(=O)[C@H](C)NC(=O)[C@H](CO)NC(=O)[C@@H](N)CSSC[C@@H](C(=O)N[C@@H](Cc2ccc(O)cc2)C(=O)NCC(=O)O)NC(=O)[C@H](CCC(N)=O)NC(=O)[C@@H]2CCCN2C(=O)[C@@H]2CCCN2C1=O` [CH16] (H-CSATYSIPPQCYG-OH; disulfide 1-11; N-terminus and C-terminus assumed) showed an IC50 greater than 50000 nM.

As for `CC[C@H](C)[C@@H]1NC(=O)[C@H](CO)NC(=O)[C@H](Cc2ccc(O)cc2)NC(=O)[C@H]([C@@H](C)O)NC(=O)[C@@H](NC(=O)[C@@H](N)Cc2ccccc2)CSSC[C@@H](C(=O)N[C@@H](Cc2ccc(O)cc2)C(=O)O)NC(=O)[C@H](CCC(N)=O)NC(=O)[C@H](C)NC(=O)[C@@H]2CCCN2C1=O` [CH37] (H-FCTYSIPAQCY-OH; disulfide 2-10; N-terminus and C-terminus assumed), affinity was put at a Ki of 780 nM and the IC50 stood at 1810 nM. In the case of `CC[C@H](C)[C@@H]1NC(=O)[C@H](CO)NC(=O)[C@H](Cc2ccc(O)cc2)NC(=O)[C@H]([C@@H](C)O)NC(=O)[C@@H](NC(=O)[C@@H](N)Cc2ccccc2)CSSC[C@@H](C(=O)N[C@@H](Cc2ccc(O)cc2)C(=O)NCC(=O)O)NC(=O)[C@H](CCC(N)=O)NC(=O)[C@@H]2CCCN2C(=O)[C@@H]2C[C@@H](O)CN2C1=O` [CH53, FCTYSIHypPQCYG] (H-FCTYSI[Hyp]PQCYG-OH; disulfide 2-10; C-terminus assumed), the “inhibitory activity against chymotrypsin (in words)” value is recorded as “good chymotrypsin inhibitory activity”, the affinity corresponds to a Ki of 110 nM and half-maximal inhibition (IC50) was put at 250 nM.
